What was measured:
[1] = system: Apt2 (DNA, aptamer) ACTTCAGTGAGTTGTCCCACGGTCGGCGAGTCGGTGGTAG; test: SPR (Biacore T200), single concentration; details: 100 mM Na+, 5 mM K+, 2 mM Mg2+, 1 mM Ca2+ (sample diluent Buf1), diluent Buf1 pH 7.4, SA-coated CM5 chip
[2] = system: Apt2 (DNA, aptamer) ACTTCAGTGAGTTGTCCCACGGTCGGCGAGTCGGTGGTAG; test: SPR (Biacore T200), steady-state fit; details: 100 mM Na+, 5 mM K+, 2 mM Mg2+, 1 mM Ca2+ (sample diluent Buf1); running buffer PBS; diluent Buf1, 20 mM Tris-HCl pH 7.4; SA-coated CM5 chip
[3] = 6.4 μM tested, running buffer PBS not restated

binding [1, 3]	Structure (SMILES)	also measured
no	CS(=O)(=O)c1ccc([C@@H](O)[C@@H](CF)NC(=O)C(Cl)Cl)cc1	–
–	CO/N=C(\C(=O)N[C@@H]1C(=O)N2C(C(=O)O)=C(COC(N)=O)CS[C@H]12)c1ccco1	binding ([1]; 6.4 μM tested (printed CN, CXM)): no
–	O=C(N[C@H](CO)[C@H](O)c1ccc([N+](=O)[O-])cc1)C(Cl)Cl	KD [2]: 141 nM
no	CS(=O)(=O)c1ccc([C@@H](O)[C@@H](CO)NC(=O)C(Cl)Cl)cc1	–
